{"source": "patent US20250270507A1", "about": "“METHODS FOR PRODUCING CARTILAGE AND BONES” (Murdoch Children's Research Institute, priority 2021, published 2025)", "molecules": {"B1": {"name": "BMP4: growth factor (R & D Systems) included at 20 ng/ml in some experiments (protein, UniProt P12644 293-408, looked up)", "Bone morphogenetic protein 4": "SPKHHSQRARKKNKNCRRHSLYVDFSDVGWNDWIVAPPGYQAFYCHGDCPFPLADHLNSTNHAIVQTLVNSVNSSIPKACCVPTELSAISMLYLDEYDKVVLKNYQEMVVEGCGCR"}}, "assay_type_in_all_cases": "cell-based, human", "key": {"[1]": {"system": "iPSC-derived chondroprogenitors (MCRIi019-A)", "assay": "TGFβ3 induction of an articular chondrocyte phenotype", "details": "day 48", "description": "In some experiments, differentiated chondrocytes were treated with 10 ng/ml TGFβ3 (R&D Systems) for up to 34 days to generate articular cartilage. From day 6, differentiation/maturation continued in APEL2/5% PFHM (with FGF2) for 7 days. From day 13, 10 ng/ml TGFβ3 was added (i.e. FGF2 and TGFβ3) with medium replaced every 2-3 days. At day 20, the pellets were transferred to rotary culture and cultured with 10 ng/ml TGFβ3 (R&D Systems) (and without FGF2) for a further 4 weeks.\n(§1) Cultured and in vivo grafted pellet organoids were fixed overnight at 4° C. in Confix (Australian Biostain) neutral-buffered formalin, then […] washed in 70% ethanol, and paraffin-embedded. After fixing, some in vivo grafted pellets were washed in water for 10 minutes then decalcified in 14% EDTA, pH 7.4 at 4° C. for 5 days before embedding. Serial 5 μm sections cut from the pellet centers were mounted on Superfrost Plus slides (Menzel-Gläser) and heated at 55° C. overnight. Sections were treated with xylene to remove the paraffin wax and an ethanol series comprising 100%, 90%, 70%, 50% ethanol then water to rehydrate the sections. Sections were stained with toluidine blue to detect a cartilage proteoglycan matrix or safranin O/fast green for cartilage and bone following standard protocols. Osteogenic pellet sections were also stained with von Kossa to detect mineralization. Images were captured using a Leica DM 2000 LED microscope with Leica Application Suite (LAS) software version 4.9.0 or Zeiss Axio Imager Z2 with Zen 3.1 Blue Edition software.\n(§2) Formalin fixed and paraffin-embedded sections were immunostained for collagen II (MAB8887; Sigma-Aldrich; 1:150 dilution), collagen I (LF68; Kerafast ENH018-FP; 1:100), collagen X (Cameron et al., 2015) (1:100), PRG4 (clone 9G3; Merck) (1:100) and Ku80 (Cell Signaling) (1:300). For collagen II staining, antigen retrieval used 2 mg/ml porcine pepsin (Sigma) freshly prepared in 1 M Tris/HCl, pH 2.0 for 30 minutes at 37° C., followed by digestion for 30 minutes at 37° C. with 0.2% hyaluronidase (Sigma-Aldrich) in PBS. Collagen X antigen retrieval involved heating to 60° C. in 10 mM Tris/1 mM EDTA/0.05% Tween-20, pH 9.0 (Tris/EDTA) for 30 min, cooling to room temperature for 30 minutes, followed by hyaluronidase digestion and collagen I and Ku80 staining followed antigen retrieval at 60° C. in Tris/EDTA as above. Sections to be stained with Ku80 were then permeabilized with 0.05% Triton X-100. Sections were blocked with 3% BSA in PBS for 1 hour at room temperature, then incubated with primary antibodies in 1% BSA in PBS for 16 hours at 4° C. Appropriate species specific Alexa Fluor 488 and 594 secondary antibodies (ThermoFisher) were diluted 1:200 in 1% BSA in PBS with 2.5 μg/ml DAPI, and sections incubated for 1 hour at room temperature. Slides were washed with PBS and coverslips mounted using Shandon Immumount (ThermoFisher). Images were captured as described above. For collagen X intracellular colocalization studies sections were treated with 0.2% hyaluronidase at 37° C. for 30 minutes then permeabilized with 0.05% Triton X-100. The collagen X antibody was used at 1:100, 58K (PA1-9000; ThermoFisher) at 1:50, GRP94 (PA5-18534; ThermoFisher) 1:200 and LAMP2 (ab25631; Abcam) 1:50. Images were captured on a Zeiss LSM900 Airyscan 2 confocal microscope with Zen 3.1 Blue Edition software.\nFor RNAseq, organoids (2-3 pooled) were snap frozen in liquid nitrogen, pulverized using a liquid nitrogen-cooled tissue grinder and RNA extracted with TRIzol, followed by purification using Direct-zol RNA Microprep kit spin columns (Zymo Research) according to the manufacturer's instructions. RNA samples were quality controlled and sequenced at the Translational Genomics Unit, Murdoch Children's Research Institute. Libraries were constructed using Illumina Stranded mRNA Prep kits and sequenced using a NextSeq 500 to obtain ˜20×10^6 75 bp paired-end reads per sample or a NovaSeq 6000 for 150 bp paired-end reads. […]"}, "[2]": {"system": "iPSC-derived sclerotome pellets (MCRIi018-B)", "assay": "Sclerotome to chondrocyte differentiation in pellet culture (FGF2 v BMP4)", "details": "for collagen II extracellular matrix (immunostaining) / collagen X extracellular staining: day 48; for collagen X extracellular staining: static pellets", "description": "Sclerotome to chondrocyte differentiation was in APEL2 medium containing 5% Protein Free Hybridoma Medium (PFHM II; Thermo Fisher) and 20 ng/ml FGF2. In some experiments BMP4 (R & D Systems) was included at 20 ng/ml. Pellets were routinely transferred to 6 cm non-adherent dishes (Greiner) at the end of either day 6 or day 20; 15-20 pellets per dish in 5 ml of medium with orbital rotation at 60 rpm. The medium was changed every 2-3 days. From day 20 (after 2 weeks of FGF2 treatment), differentiation/maturation continued in APEL2/5% PFHM with medium replaced every 2-3 days for the duration of the chondrogenic differentiation experiments as indicated. In some experiments pellets were treated with FGF2 for 4 weeks post-sclerotome.\nas §1, §2\nRNA was extracted from monolayer cultures using TRIzol […] following the manufacturer's instructions. Typically 100-200 ng total RNA was used for cDNA synthesis in a total volume of 20 μl using the QuantiTect® Reverse Transcription kit (Qiagen) according to the manufacturer's instructions. […]"}, "[3]": {"system": "MCRIi018-B hypertrophic organoids", "assay": "Hypertrophic chondrocyte to osteoblast transdifferentiation in vitro", "description": "Hypertrophic chondrocytes can transdifferentiate into osteoblasts and osteocytes in vivo (Yang et al., 2014; Zhou et al., 2014). To recapitulate this later stage of endochondral bone formation in vitro, hypertrophic chondrocyte pellets in orbital culture were rinsed in PBS then cultured in DMEM, high glucose, GlutaMAX Supplement, pyruvate (ThermoFisher), 20% FBS (ThermoFisher), 10 mM β-glycerophosphate, 50 μg/ml ascorbic acid 2-phosphate, 50 μg/ml sodium ascorbate, 100 nM dexamethasone (osteogenic differentiation media) for up to three weeks. […] Media was replaced every 2-3 days. […]"}, "[4]": {"system": "MCRIi001-A-2 organoids", "assay": "Osteogenic differentiation conditions in a second iPSC line", "details": "osteogenic conditions with a CHIR99021 pulse v osteogenic medium alone", "description": "Hypertrophic chondrocytes can transdifferentiate into osteoblasts and osteocytes in vivo (Yang et al., 2014; Zhou et al., 2014). To recapitulate this later stage of endochondral bone formation in vitro, hypertrophic chondrocyte pellets in orbital culture were rinsed in PBS then cultured in DMEM, high glucose, GlutaMAX Supplement, pyruvate (ThermoFisher), 20% FBS (ThermoFisher), 10 mM β-glycerophosphate, 50 μg/ml ascorbic acid 2-phosphate, 50 μg/ml sodium ascorbate, 100 nM dexamethasone (osteogenic differentiation media) for up to three weeks. […] Media was replaced every 2-3 days.\nas §1, with “Osteogenic pellet sections were also stained with von Kossa to detect mineralization. Images were captured using a Leica DM 2000 LED microscope with Leica Application Suite (LAS) software version 4.9.0 or Zeiss Axio Imager Z2 with Zen 3.1 Blue Edition software.” left out"}, "[5]": {"details": "20 ng/ml for 14 days post-sclerotome, qRT-PCR"}, "[6]": {"details": "20 ng/ml for 14 days post-sclerotome, static culture, day 34"}, "[7]": {"details": "osteogenic conditions with CHIR, RNAseq"}, "[8]": {"details": "osteogenic conditions with a CHIR pulse, RNAseq"}}, "data": [{"molecule": "TGFβ3: TGF-beta agonist growth factor (R&D Systems) used at 10 ng/ml", "values": [{"measurement": "PRG4 immunostaining", "setting": "[1]; 10 ng/ml from day 13", "value": "High uniform PRG4 immunostaining"}, {"measurement": "chondrocyte morphology", "setting": "[1]; 10 ng/ml from day 13", "value": "smaller chondrocytes"}, {"measurement": "collagen II expression (immunostaining)", "setting": "[1]; 10 ng/ml from day 13", "value": "also expressing collagen II"}, {"measurement": "collagen X (immunostaining)", "setting": "[1]; 10 ng/ml from day 13", "value": "no extracellular collagen X"}, {"measurement": "ACAN and HAPLN mRNA", "setting": "[1]; RNAseq", "value": "down-regulation"}, {"measurement": "COL10A1, IBSP, SPP1 and MATN3 mRNA", "setting": "[1]; RNAseq", "value": "among the most downregulated"}, {"measurement": "COMP mRNA v untreated chondronoids", "setting": "[1]; RNAseq", "value": "not differentially expressed"}, {"measurement": "ERG transcription factor mRNA", "setting": "[1]; RNAseq", "value": "highly expressed and upregulated"}, {"measurement": "MEOX1 and MEOX2 mRNA", "setting": "[1]; RNAseq", "value": "highly upregulated"}, {"measurement": "PRG4, ASPN, CILP and CILP2 mRNA v untreated chondronoids", "setting": "[1]; RNAseq", "value": "strongly upregulated"}, {"measurement": "downregulation of COL2A1, COL9A1, COL9A2, COL9A3, COL11A1 mRNA v untreated chondronoids", "setting": "[1]; RNAseq", "value": "≤ 2", "unit": "fold"}, {"measurement": "elastic fiber components ELN, LTBP2, TGFBI and MFAP5 mRNA", "setting": "[1]; RNAseq", "value": "among the 20 most highly upregulated genes"}, {"measurement": "hypertrophy transcription factors MEF2C, RUNX2, SP7 and DLX5 mRNA", "setting": "[1]; RNAseq", "value": "Among the most strongly downregulated"}]}, {"molecule": "FGF2: FGF pathway activator growth factor (PeproTech) used at 20 ng/ml post-sclerotome", "values": [{"measurement": "COL2A1 and ACAN gene expression", "setting": "[2]; [5]", "value": "consistently higher than in BMP4 cultures"}, {"measurement": "toluidine blue staining of pellets", "setting": "[2]; [6]", "value": "strong toluidine blue staining throughout"}, {"measurement": "collagen II extracellular matrix (immunostaining)", "setting": "[2]", "value": "extensive and uniform collagen II extracellular matrix"}, {"measurement": "collagen X extracellular staining", "setting": "[2]", "value": "strong"}, {"measurement": "toluidine blue staining of pellets", "setting": "[2]; rotary culture from day 6", "value": "stained throughout with toluidine blue"}]}, {"molecule": "Cc1cnc(-c2cnc(NCCNc3ccc(C#N)cn3)nc2-c2ccc(Cl)cc2Cl)[nH]1", "note": "[CHIR99021, 6-[[2-[[4-(2,4-Dichlorophenyl)-5-(5-methyl-1H-imidazol-2-yl)-2-pyrimidinyl]amino]ethyl]amino]-3-pyridinecarbonitrile]", "values": [{"measurement": "COL1A1 mRNA expression v osteogenic medium alone", "setting": "[3]; RNAseq", "value": "much higher"}, {"measurement": "bone markers COL3A1, COL5A1 and OMD mRNA v osteogenic medium alone", "setting": "[3]; RNAseq", "value": "more highly expressed"}, {"measurement": "other cartilage markers (SOX9, COMP, IHH, MATN3, CEBPB, COL11A1, COL11A2, COL9A1, COL9A2, COL9A3) mRNA v osteogenic medium alone", "setting": "[3]; RNAseq", "value": "downregulated more"}, {"measurement": "COL1A1 upregulation v hypertrophic chondrocytes", "setting": "[3]; [7]", "value": 324, "unit": "fold"}, {"measurement": "COL1A2 upregulation v hypertrophic chondrocytes", "setting": "[3]; [7]", "value": 210, "unit": "fold"}, {"measurement": "DMP1 upregulation v hypertrophic chondrocytes", "setting": "[3]; [7]", "value": 935, "unit": "fold"}, {"measurement": "IBSP upregulation v hypertrophic chondrocytes", "setting": "[3]; [7]", "value": 7, "unit": "fold"}, {"measurement": "IFITM5 upregulation v hypertrophic chondrocytes", "setting": "[3]; [7]", "value": 105, "unit": "fold"}, {"measurement": "CCDC3 upregulation v hypertrophic chondrocytes", "setting": "[3]; [8]", "value": 121, "unit": "fold"}, {"measurement": "FAP upregulation v hypertrophic chondrocytes", "setting": "[3]; [8]", "value": 64, "unit": "fold"}, {"measurement": "POSTN upregulation v hypertrophic chondrocytes", "setting": "[3]; [8]", "value": 54, "unit": "fold"}, {"measurement": "SFRP4 upregulation v hypertrophic chondrocytes", "setting": "[3]; [8]", "value": 4, "unit": "fold"}, {"measurement": "TNC upregulation v hypertrophic chondrocytes", "setting": "[3]; [8]", "value": 72, "unit": "fold"}, {"measurement": "toluidine blue staining", "setting": "[3]; osteogenic medium with 7-day pulse then 2 weeks osteogenic medium alone", "value": "marked reduction in toluidine blue staining"}, {"measurement": "μCT calcium phosphate mineral", "setting": "[3]; three weeks", "value": "little μCT attenuation"}, {"measurement": "von Kossa staining (matrix mineralization)", "setting": "[3]; three weeks, compared between the two osteogenic conditions", "value": "positive von Kossa staining"}, {"measurement": "aggrecan degradation (toluidine blue)", "setting": "[4]", "value": "more extensive"}]}, {"molecule": "B1", "values": [{"measurement": "COL10A1 gene expression", "setting": "[2]; [5]", "value": "expressed earlier"}, {"measurement": "toluidine blue staining of pellets", "setting": "[2]; [6]", "value": "only isolated areas were toluidine blue positive"}, {"measurement": "expression of key cartilage genes", "setting": "[2]; 20 ng/ml for two weeks post-sclerotome, first experiments, data not shown", "value": "key cartilage genes were not highly expressed"}, {"measurement": "collagen II extracellular matrix (immunostaining)", "setting": "[2]", "value": "only small foci that were positive for collagen II"}, {"measurement": "collagen X extracellular staining", "setting": "[2]", "value": "only seen in small, localized regions"}, {"measurement": "maintenance of pellets in rotary culture", "setting": "[2]; transfer to rotary culture at end of day 6", "value": "fragile and could not be maintained in rotary culture"}]}]}
